The record followed here is patent publication US12679836B2, “4H-pyrrolo[3,2-c]pyridin-4-one compounds” (Bayer Aktiengesellschaft, priority 2019, dated 2026).

Several values for one entry are separate records, joined by “and”; a condition that tells them apart may be missing. Equal entries are not always repeated. Where two headings read alike, the source gives them in different places.

Experiment [1] deals with Ba/F3-EGFR-N771_P772insH cells (Homo sapiens, UniProt P00533, INS771H, cells depend on it). Description: Ba/F3 cell survival assay, EGFR N771_P772insH. Type of experiment: cell-based. The conditions noted are these: without IL-3, without EGF, 48 h; read-out: BA/F3 (EGFR N771_772 insH) IC50. As for the experimental part: (§1) 293T cells from ATCC were transfected with pBABEpuro expression constructs for mutant EGFR (V769_D770insASV, D770_N771insNPG, N771_P772insH, H773_V774insNPH, E746_A750del, L858R, D770_N771insSVD C797S, E746_A750del C797S, L858R C797S, L861Q) or mutant ERBB2 (A775_G776insYVMA) and pCL-Eco packaging vector using Fugene-6 transfection reagent from Promega. Plates were incubated at 37° C. for 48 h. Retrovirus was harvested by filtering the media supernatant through a 0.45 μm filter.
(§2) Ba/F3 cells purchased from DSMZ were grown in RPMI+10% FBS+10 ng/mL IL-3 and infected with filtered retroviral supernatant at a 1:2 dilution. Polybrene was added to a concentration of 8 μg/mL, plates were spun for 90 min, and incubated overnight at 37° C. 2 μg/mL puromycin was added to the infected cells 24 h after infection and cells were continually grown in the presence of puromycin and 10 ng/mL IL-3. Following stably expressing Ba/F3 cell lines were generated: Ba/F3-EGFR-V769_D770insASV, Ba/F3-EGFR-D770_N771insNPG, Ba/F3-EGFR-N771_P772insH, Ba/F3-EGFR-H773_V774insNPH, Ba/F3-EGFR-E746_A750del, Ba/F3-EGFR-L858R, Ba/F3-EGFR-D770_N771 insSVD C797S, Ba/F3-EGFR-E746_A750del C797S, Ba/F3-EGFR-L858R C797S, Ba/F3-EGFR L861Q and Ba/F3-ERBB2-A775_G776insYVMA (Ba/F3-vector-control).
(§3) For cell survival assays, Ba/F3 cells were grown to a density of 1-2 million cells per mL, spun down and resuspended in media without IL-3, and replated at a concentration 200,000-500,000 cells per mL. The cells ectopically expressing WT EGFR plated with 10 ng/mL Millipore Culture grade EGF and Ba/F3 cells containing mutant EGFR or Mutant ERBB2 were cultivated without EGF. The cells ectopically expressing pBABEpuro empty vector were plated with 10 ng/mL IL-3.
(§4) 2 days later, cells were plated in 50 μL in a 384 well plate at a concentration of 4000 cells per well for cells assayed in the absence of IL-3 and 2000 cells per well for cells assayed in the presence of IL-3. 100 nL of compound was added to each well using a 100 nL pin head, and plates were incubated at 37° C. for 48 h.
(§5) Cell viability was measured by adding 20 μL of Cell Titer-Glo Luminescent Cell Viability Reagent diluted 1:3 in PBS. Plates were sealed with Perkin Elmer Top-Seal, inverted several times to mix, and immediately centrifuged at 1000 rpm for 2 min. Plates were incubated in low light conditions for 8-10 min and luminescence was measured.

Experiment [2] deals with Ba/F3-EGFR-H773_V774insNPH cells (Homo sapiens, UniProt P00533, DUP771-773, cells depend on it). Description: Ba/F3 cell survival assay, EGFR H773_V774insNPH. It counts as cell-based. The conditions noted are these: read-out: BA/F3 (EGFR 773_774insNPH) IC50 [mol/l]; without IL-3, without EGF, 48 h. The protocol: as §1, §2, §3, §4, §5
Experiment [3] deals with Ba/F3-EGFR-D770_N771insNPG cells (Homo sapiens, UniProt P00533, INS772GNP, cells depend on it). Description: Ba/F3 cell survival assay, EGFR D770_N771insNPG. Type of experiment: cell-based. Conditions: without IL-3, without EGF, 48 h; read-out: BA/F3 (insNPG) IC50. The protocol: as §1, §2, §3, §4, §5
In another experiment the target is T1, Bub1 (Homo sapiens, UniProt O43683).
T1 construct: catalytic domain of human Bub1 (amino acids 704-1085); His6 (N); made in house; host or cells: Hi5 insect cells
Description: Bub1 TR-FRET high ATP kinase assay. It counts as biochemical. The conditions noted are these: 2 mM ATP. The procedure, abridged: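 Recombinant His6-tagged human Bub1 catalytic domain (aa 704-1085), from Hi5 insect cells, phosphorylating a biotinylated peptide substrate at high ATP concentration. TR-FRET read-out.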
(In TR-FRET formats the signal depends on donor and acceptor labels being close together.)

For another experiment, the target named is Ba/F3-EGFR-L858R cells (Homo sapiens, UniProt P00533, L858R, cells depend on it). Description: Ba/F3 cell survival assay, EGFR L858R. It counts as cell-based. The conditions noted are these: without IL-3, without EGF, 48 h; read-out: BA/F3 (EGFR L858R) IC50. As for the experimental part: as §1, §2, §3, §4, §5
The target in experiment [4] is Ba/F3-EGFR-E746_A750del C797S cells (Homo sapiens, UniProt P00533, DEL746-750/C797S, cells depend on it). Description: Ba/F3 cell survival assay, EGFR E746_A750del C797S. Type of experiment: cell-based. The conditions noted are these: without IL-3, without EGF, 48 h; read-out: BA/F3 (EGFR E746_A750del C797S) IC50. As for the experimental part: as §1, §2, §3, §4, §5

In experiment [5] the target is Ba/F3-EGFR-E746_A750del cells (Homo sapiens, UniProt P00533, DEL746-750, cells depend on it). Description: Ba/F3 cell survival assay, EGFR E746_A750del. It counts as cell-based. The conditions noted are these: without IL-3, without EGF, 48 h; read-out: BA/F3 (EGFR E746_A750del) IC50. As for the experimental part:
as §1, §2, §3, §4, §5

In experiment [6] the target is Ba/F3-EGFR-L858R C797S cells (Homo sapiens, UniProt P00533, C797S/L858R, cells depend on it). Description: Ba/F3 cell survival assay, EGFR L858R C797S. It counts as cell-based. Conditions: without IL-3, without EGF, 48 h; read-out: BA/F3 (EGFR L858R C797S) IC50. As for the experimental part: as §1, §2, §3, §4, §5
Experiment [7] has as its target Ba/F3-EGFR-V769_D770insASV cells (Homo sapiens, UniProt P00533, DUP767-769, cells depend on it). Description: Ba/F3 cell survival assay, EGFR V769_D770insASV. The conditions noted are these: without IL-3, without EGF, 48 h; read-out: BA/F3 (ASV) IC50. It counts as cell-based. As for the experimental part: as §1, §2, §3, §4, §5
The target of experiment [8] is T2, EGFR with insertion of SVD between D770 and N771 (EGFR ins SVD) (Homo sapiens, UniProt P00533, DUP768-770).
T2 construct: made in house; host or cells: Sf9 insect cells (baculovirus)
Description: Exon20-Mutant-EGFR(D770_N771insSVD) kinase assay (TR-FRET). The conditions noted are these: 2 mM ATP, several values per example where printed. Type of experiment: biochemical.

[9] abbreviates: Bub1 high ATP (2 mM) IC50 [mol/l].

Sequence of Ba/F3-EGFR-L858R cells (P00533 whole entry L858R): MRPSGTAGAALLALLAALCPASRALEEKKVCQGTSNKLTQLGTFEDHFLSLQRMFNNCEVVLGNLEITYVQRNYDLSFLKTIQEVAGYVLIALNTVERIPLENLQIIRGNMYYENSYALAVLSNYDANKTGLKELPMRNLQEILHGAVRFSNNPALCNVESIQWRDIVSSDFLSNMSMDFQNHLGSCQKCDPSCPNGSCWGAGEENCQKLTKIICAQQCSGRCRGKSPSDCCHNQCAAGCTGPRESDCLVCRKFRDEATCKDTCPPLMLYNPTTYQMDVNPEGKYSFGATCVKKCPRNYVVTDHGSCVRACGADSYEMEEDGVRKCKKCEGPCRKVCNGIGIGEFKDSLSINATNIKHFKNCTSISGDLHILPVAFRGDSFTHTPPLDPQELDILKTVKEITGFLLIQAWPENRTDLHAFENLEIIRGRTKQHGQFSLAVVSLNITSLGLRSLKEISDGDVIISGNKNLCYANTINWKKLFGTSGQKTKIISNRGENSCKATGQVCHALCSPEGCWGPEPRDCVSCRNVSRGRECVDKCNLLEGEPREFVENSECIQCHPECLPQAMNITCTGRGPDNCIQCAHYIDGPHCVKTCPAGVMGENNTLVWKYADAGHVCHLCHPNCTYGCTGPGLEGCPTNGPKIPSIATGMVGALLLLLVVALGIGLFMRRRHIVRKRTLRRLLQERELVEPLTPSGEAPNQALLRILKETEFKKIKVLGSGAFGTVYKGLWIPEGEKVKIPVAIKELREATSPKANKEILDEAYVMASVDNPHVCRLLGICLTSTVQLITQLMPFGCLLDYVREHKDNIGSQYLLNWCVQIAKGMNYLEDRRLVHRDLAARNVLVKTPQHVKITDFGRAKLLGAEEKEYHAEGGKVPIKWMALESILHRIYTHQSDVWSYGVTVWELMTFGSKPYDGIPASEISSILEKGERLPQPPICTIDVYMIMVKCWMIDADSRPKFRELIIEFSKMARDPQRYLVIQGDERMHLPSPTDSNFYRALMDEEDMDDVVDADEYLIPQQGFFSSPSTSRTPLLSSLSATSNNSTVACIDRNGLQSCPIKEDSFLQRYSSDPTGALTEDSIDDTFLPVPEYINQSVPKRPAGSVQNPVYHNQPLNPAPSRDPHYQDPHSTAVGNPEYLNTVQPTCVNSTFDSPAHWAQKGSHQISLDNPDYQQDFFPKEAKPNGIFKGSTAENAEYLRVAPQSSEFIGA
Sequence of Ba/F3-EGFR-E746_A750del C797S cells (P00533 with tags, fused parts or gaps DEL746-750/C797S): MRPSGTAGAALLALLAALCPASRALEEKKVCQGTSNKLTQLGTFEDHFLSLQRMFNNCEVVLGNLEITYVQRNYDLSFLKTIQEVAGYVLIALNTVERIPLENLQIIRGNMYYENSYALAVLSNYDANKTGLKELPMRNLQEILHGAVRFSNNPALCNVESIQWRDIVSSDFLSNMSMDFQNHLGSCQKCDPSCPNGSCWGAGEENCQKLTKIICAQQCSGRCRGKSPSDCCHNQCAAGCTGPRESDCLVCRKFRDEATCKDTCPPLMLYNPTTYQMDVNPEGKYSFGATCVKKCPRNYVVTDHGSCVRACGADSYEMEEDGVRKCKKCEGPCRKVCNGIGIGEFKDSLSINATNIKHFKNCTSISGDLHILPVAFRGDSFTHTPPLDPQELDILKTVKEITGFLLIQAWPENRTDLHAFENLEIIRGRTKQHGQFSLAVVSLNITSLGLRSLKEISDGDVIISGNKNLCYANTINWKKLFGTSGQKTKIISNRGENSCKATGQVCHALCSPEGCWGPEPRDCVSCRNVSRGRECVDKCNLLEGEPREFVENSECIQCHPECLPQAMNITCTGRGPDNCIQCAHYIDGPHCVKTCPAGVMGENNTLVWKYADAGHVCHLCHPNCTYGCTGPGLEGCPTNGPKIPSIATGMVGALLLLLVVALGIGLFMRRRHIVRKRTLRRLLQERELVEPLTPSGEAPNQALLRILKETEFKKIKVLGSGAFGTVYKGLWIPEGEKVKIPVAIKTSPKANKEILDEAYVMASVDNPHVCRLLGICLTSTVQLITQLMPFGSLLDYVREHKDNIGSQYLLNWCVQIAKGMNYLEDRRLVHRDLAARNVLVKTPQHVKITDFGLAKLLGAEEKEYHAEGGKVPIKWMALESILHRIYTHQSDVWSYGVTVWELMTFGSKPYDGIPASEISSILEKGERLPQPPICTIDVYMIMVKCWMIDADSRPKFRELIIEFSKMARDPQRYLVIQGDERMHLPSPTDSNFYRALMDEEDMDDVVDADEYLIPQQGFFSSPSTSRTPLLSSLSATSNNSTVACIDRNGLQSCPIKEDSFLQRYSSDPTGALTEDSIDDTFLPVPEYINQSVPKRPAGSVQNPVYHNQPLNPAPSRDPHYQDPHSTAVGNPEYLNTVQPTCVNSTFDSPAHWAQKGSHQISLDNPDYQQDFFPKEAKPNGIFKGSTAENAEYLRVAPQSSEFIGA
Sequence of Ba/F3-EGFR-L858R C797S cells (P00533 whole entry C797S/L858R): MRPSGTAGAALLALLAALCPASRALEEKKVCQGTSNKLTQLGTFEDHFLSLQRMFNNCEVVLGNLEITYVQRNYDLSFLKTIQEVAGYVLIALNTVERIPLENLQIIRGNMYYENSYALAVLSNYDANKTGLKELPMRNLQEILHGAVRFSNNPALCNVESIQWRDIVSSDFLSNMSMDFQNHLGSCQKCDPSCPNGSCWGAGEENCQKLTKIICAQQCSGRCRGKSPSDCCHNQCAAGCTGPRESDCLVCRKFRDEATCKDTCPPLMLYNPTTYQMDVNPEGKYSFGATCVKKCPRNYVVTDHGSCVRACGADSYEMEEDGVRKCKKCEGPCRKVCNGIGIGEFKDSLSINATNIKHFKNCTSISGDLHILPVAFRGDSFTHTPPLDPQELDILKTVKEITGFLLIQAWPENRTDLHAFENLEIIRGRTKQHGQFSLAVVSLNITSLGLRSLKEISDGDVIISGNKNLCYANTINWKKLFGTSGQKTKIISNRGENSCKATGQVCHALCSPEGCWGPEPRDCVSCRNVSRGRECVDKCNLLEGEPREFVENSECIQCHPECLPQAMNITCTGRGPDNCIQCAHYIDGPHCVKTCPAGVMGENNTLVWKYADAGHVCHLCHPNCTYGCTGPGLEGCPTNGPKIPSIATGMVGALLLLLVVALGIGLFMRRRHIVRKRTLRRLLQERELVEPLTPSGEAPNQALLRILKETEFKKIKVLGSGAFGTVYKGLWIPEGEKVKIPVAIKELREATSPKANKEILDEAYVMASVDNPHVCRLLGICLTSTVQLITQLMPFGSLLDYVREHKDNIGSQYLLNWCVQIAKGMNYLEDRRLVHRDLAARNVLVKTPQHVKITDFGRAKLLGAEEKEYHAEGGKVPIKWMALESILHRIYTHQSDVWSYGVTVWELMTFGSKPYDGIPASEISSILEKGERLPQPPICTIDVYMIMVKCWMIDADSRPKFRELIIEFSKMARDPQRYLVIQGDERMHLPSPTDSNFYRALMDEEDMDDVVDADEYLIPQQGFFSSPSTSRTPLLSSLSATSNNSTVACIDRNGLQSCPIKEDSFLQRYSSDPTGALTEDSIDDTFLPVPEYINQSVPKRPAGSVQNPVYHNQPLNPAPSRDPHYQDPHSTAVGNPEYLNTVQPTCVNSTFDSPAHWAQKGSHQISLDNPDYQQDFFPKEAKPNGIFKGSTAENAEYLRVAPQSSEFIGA
T1 sequence (O43683 704-1085): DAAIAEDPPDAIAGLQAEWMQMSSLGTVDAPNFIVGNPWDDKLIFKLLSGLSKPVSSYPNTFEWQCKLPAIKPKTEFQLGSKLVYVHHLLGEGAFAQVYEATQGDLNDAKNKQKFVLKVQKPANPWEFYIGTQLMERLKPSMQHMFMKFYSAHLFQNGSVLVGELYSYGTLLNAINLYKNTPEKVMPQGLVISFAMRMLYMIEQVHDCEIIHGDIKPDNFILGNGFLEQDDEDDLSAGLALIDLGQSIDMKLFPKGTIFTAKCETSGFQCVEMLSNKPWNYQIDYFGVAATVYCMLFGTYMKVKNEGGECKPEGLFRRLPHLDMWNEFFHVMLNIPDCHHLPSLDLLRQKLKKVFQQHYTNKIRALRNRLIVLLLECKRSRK
T2 sequence (P00533 with tags, fused parts or gaps DUP768-770): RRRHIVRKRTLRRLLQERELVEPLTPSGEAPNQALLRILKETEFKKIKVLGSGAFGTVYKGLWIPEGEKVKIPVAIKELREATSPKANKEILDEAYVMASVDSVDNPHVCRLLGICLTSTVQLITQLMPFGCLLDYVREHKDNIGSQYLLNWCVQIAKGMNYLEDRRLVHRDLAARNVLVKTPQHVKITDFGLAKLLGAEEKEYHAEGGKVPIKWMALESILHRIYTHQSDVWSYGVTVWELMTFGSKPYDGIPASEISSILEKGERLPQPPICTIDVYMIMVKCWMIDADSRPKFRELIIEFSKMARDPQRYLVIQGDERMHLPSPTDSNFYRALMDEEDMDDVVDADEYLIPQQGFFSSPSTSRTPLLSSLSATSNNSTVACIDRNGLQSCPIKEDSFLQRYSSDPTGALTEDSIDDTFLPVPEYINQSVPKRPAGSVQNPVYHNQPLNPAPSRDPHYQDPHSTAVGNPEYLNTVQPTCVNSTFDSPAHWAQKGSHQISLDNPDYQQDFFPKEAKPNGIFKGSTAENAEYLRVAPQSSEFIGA

For `COc1c(Cl)cccc1Nc1c(-c2ccncc2OC[C@@H]2COCCO2)[nH]c2c1C(=O)NCC2` (single isomer, unassigned) [Example 2], the GI50 in experiment [1] is 7.48 nM; in [2], 28.2 nM; in experiment [3], 4.44 nM; at Ba/F3-EGFR-L858R cells, 0.525 nM; in experiment [4], 0.22 nM; in experiment [5], less than 0.158 nM. Besides, the GI50 is 0.603 nM in experiment [6] and 4.66 nM in [7]. The compound also showed an IC50 against Bub1 (setting [9]) of 6040 nM.

Take `COc1c(F)cccc1Nc1c(-c2ccncc2OCC2COCCO2)[nH]c2c1C(=O)NCC2` (single isomer, unassigned) [Example 5, 2-{3-[(1,4-dioxan-2-yl)methoxy]pyridin-4-yl}-3-(3-fluoro-2-methoxyanilino)-1,5,6,7-tetrahydro-4H-pyrrolo[3,2-c]pyridin-4-one]: the GI50 was 11.5 nM in experiment [1]; 79.3 nM in [2]; 26.3 nM in experiment [3]; 2.03 nM at Ba/F3-EGFR-L858R cells; 0.668 nM in [4]; 0.739 nM in experiment [5]. Moreover, the GI50 in [6] was 2.67 nM; in experiment [7], 28.7 nM. Also, at Bub1 (setting [9]), the IC50 came to 12900 nM. For the same compound, in experiment [8], the “mutEGFR (D770_N771insSVD) kinase assay IC50” value (“mutEGFR” for short) is <0.0725 nM and 0.0851 nM and 0.112 nM and 0.114 nM and 0.12 nM and 0.124 nM and 0.136 nM.

In the case of `O=C1NCCc2[nH]c(-c3ccncc3OCC3COCCO3)c(Nc3cccc(Cl)c3Cl)c21` (single isomer, unassigned) [Example 8, 3-(2,3-dichloroanilino)-2-{3-[(1,4-dioxan-2-yl)methoxy]pyridin-4-yl}-1,5,6,7-tetrahydro-4H-pyrrolo[3,2-c]pyridin-4-one], the GI50 in [1] was 4.91 nM; in experiment [2], 23.1 nM; in experiment [3], 11.6 nM; on Ba/F3-EGFR-L858R cells it was 0.701 nM; in [4] it was 0.247 nM; in experiment [5] it was less than 0.158 nM. The GI50 in experiment [6] was 1.2 nM; in experiment [7], 9.62 nM. Further, at Bub1 (setting [9]), the IC50 was 7880 nM. The “mutEGFR” value in experiment [8] was determined as 0.0799 nM.

Consider `COc1c(F)cccc1Nc1c(-c2ccncc2OCC2CN(C)CCO2)[nH]c2c1C(=O)NCC2` (single isomer, unassigned) [Example 14, 3-(3-fluoro-2-methoxyanilino)-2-{3-[(4-methylmorpholin-2-yl)methoxy]pyridin-4-yl}-1,5,6,7-tetrahydro-4H-pyrrolo[3,2-c]pyridin-4-one], for which the GI50 in experiment [1] is 7.6 nM; in [2], 65.8 nM; in [3], 12.5 nM; at Ba/F3-EGFR-L858R cells it was 1.22 nM; in [4], 0.379 nM; in [5] it was 1.72 nM. Further, the GI50 in [6] came to 1.91 nM; in experiment [7], 16.4 nM. For the same compound, at Bub1 (read-out: Bub1 high ATP (2 mM) IC50 [mol/l]), the IC50 was greater than 20000 nM. Besides, the “mutEGFR” value in experiment [8] amounted to 0.13 nM.

For `COc1c(Cl)cccc1Nc1c(-c2ccncc2OCC2COC(C)(C)CO2)[nH]c2c1C(=O)NCC2` (single isomer, unassigned) [Example 32, 3-(3-chloro-2-methoxyanilino)-2-{3-[(5,5-dimethyl-1,4-dioxan-2-yl)methoxy]pyridin-4-yl}-1,5,6,7-tetrahydro-4H-pyrrolo[3,2-c]pyridin-4-one], the GI50 turned out to be 11 nM in experiment [1]; 47.3 nM in experiment [2]; 9.38 nM in experiment [3]; 1.06 nM at Ba/F3-EGFR-L858R cells; 0.511 nM in experiment [4]; 2.89 nM in experiment [5]. Also, the GI50 in experiment [6] was determined as 1.12 nM; in experiment [7], 13.2 nM. Further, the “mutEGFR” value in [8] turned out to be 0.127 nM.

As for `Cc1c(Cl)cccc1Nc1c(-c2ccncc2OCC2COC(C)(C)CO2)[nH]c2c1C(=O)NCC2` (single isomer, unassigned) [Example 46, 3-(3-chloro-2-methyl-anilino)-2-[3-[(5,5-dimethyl-1,4-dioxan-2-yl)methoxy]-4-pyridyl]-1,5,6,7-tetrahydropyrrolo[3,2-c]pyridin-4-one], the GI50 in experiment [1] turned out to be 5.77 nM; in experiment [2], 38.9 nM; in experiment [3], 14.3 nM; on Ba/F3-EGFR-L858R cells, 0.957 nM; in experiment [5], 1.05 nM; in experiment [7] it was 11.7 nM. The compound further registered an IC50 against Bub1 (setting [9]) of 13000 nM. The “mutEGFR” value in experiment [8] amounted to 0.433 nM.

With `Cc1c(F)cccc1Nc1c(-c2ccncc2OCC2COCCO2)[nH]c2c1C(=O)NCC2` (single isomer, unassigned) [Example 48, 2-[3-(1,4-dioxan-2-ylmethoxy)-4-pyridyl]-3-(3-fluoro-2-methyl-anilino)-1,5,6,7-tetrahydropyrrolo[3,2-c]pyridin-4-one], the GI50 in [1] is 17.6 nM; in experiment [2], 142 nM; in experiment [3], 42.4 nM; on Ba/F3-EGFR-L858R cells, 2.36 nM; in [4] it was 0.4 nM and 0.776 nM; in [5] it was 1.43 nM. The GI50 in experiment [7] stood at 41.8 nM. The same compound had an IC50 on Bub1 (setting [9]) of 12200 nM. Further, the “mutEGFR” value in experiment [8] was 0.249 nM.

`COc1c(F)cccc1Nc1c(-c2ccncc2OC[C@@H]2COCCN2C)[nH]c2c1C(=O)NCC2` [Example 20, 3-(3-fluoro-2-methoxyanilino)-2-(3-{[(3S)-4-methylmorpholin-3-yl]methoxy}pyridin-4-yl)-1,5,6,7-tetrahydro-4H-pyrrolo[3,2-c]pyridin-4-one]: the GI50 in experiment [1] worked out at 6.59 nM; in experiment [2], 56.7 nM; in experiment [3], 14.7 nM; in experiment [4] it was 0.349 nM; in experiment [6] it was 0.791 nM; in experiment [7], 11.7 nM. The compound further returned an IC50 against Bub1 (setting [9]) of 9530 nM. Besides, the “mutEGFR” value in [8] was found to be 0.0872 nM.
